One may read the ED50 as the midpoint of the dose-response relation. As a reminder, the IC50 is the concentration that gives 50% inhibition. Lower therefore signals higher potency. One may read the LD50 as the dose expected to kill half of the subjects tested.

For data set [1], the system named is spasmodic seizures caused by pentetrazole. Briefly: antipentetrazole test. The data set is classed as in vivo. The conditions noted are these: Rattus norvegicus, po, 0.5 h; female rats 60-80 g, p.o. 30 minutes before 120 mg/kg pentetrazole i.p. On the procedure:
The central properties of the compounds of formula I provided by the present invention can be determinded, for example, in the antipentetrazole test which is described hereinafter and which is generally recognized for recording anticonvulsant properties.
In this animal experiment the compound under investigation is administered orally to female rats weighing 60-80 g and 30 minutes later there are administered intraperitoneally 120 mg/kg of pentetrazole which causes emprosthotonus and tonic stretchings of the fore and/or hind limbs in unprotected experimental animals 1 to 4 minutes after the injection. Ten experimental animals are used per dosage of test substance. After counting the protected experimental animals, the ED50 is determined according to the Probit method. The ED50 is that dosage which protects 50% of the experimental animals from the spasmodic seizures caused by pentetrazole.

Data set [2] deals with sedative, muscle relaxant and motor coordination-disturbing activity caused by high dosages of diazepam. Briefly: traction test (antagonism of diazepam). The conditions noted are these: Mus musculus, po, 0.25 h; mice, p.o. 15 minutes after 3 mg/kg diazepam i.p. The data set is classed as in vivo. On the procedure: In this animal experiment the ability of the test substances to antagonise the sedative, muscle relaxant and motor coordination-disturbing activity caused by high dosages of diazepam is determined.
Mice weighing 17-29 g are lifted by the tail and are allowed to grip a taut horizontal wire (length 15 cm, height 20 cm, diameter 1 mm) with the front paws, whereupon the experimental animals are released. Untreated control animals are capable of gripping the wire with both front paws and at least one hind paw within 3 seconds. If 3 mg/kg of diazepam are administered intraperitoneally to the experimental animals, then their aforementioned capabilities disappear, i.e. they are no longer capable of gripping the taut horizontal wire within 3 seconds with both front paws and at least one hind paw. 15 minutes after the administration of diazepam the compound under investigation is administered orally to the experimental animals, whereupon there are counted those animals which have regained the aforementioned capabilities. The ED50 is that dosage which in 50% of the experimental animals antagonizes the action of diazepam, i.e. counteracts this.

Data set [3] addresses central benzodiazepine receptors. Briefly: inhibition of the binding of tritiated diazepam at the specific benzodiazepine receptors in the cerebral cortex. The conditions noted are these: [3H]diazepam. As to the method:
The affinity of compounds of general formula I to the central benzodiazepine receptors was determined according to the method described in Life Science 20, 2101-2110 (1977) and Science 198, 849-851 (1977). According to this method, the inhibition of the binding of tritiated diazepam at the specific benzodiazepine receptors in the cerebral cortex by the respective test substances is ascertained. The IC50 ("50% inhibiting concentration") is that concentration of the respective test substance which brings about a 50 percent inhibition of the specific binding of the tritiated diazepam at the specific benzodiazepine receptors in the cerebral cortex.

A short description of data set [4]: acute toxicity, single oral administration. Conditions: rat, in vivo; single oral administration to rats. An excerpt:
The results obtained with representative compounds of formula I in the experiments described earlier are compiled in the following Table. The Table also contains data concerning the acute toxcity of some of these compounds (LD50 in mg/kg following single oral administration to rats).

For the compound `O=C(OCC1CC1)c1ncn2c1[C@@H]1CCN1C(=O)c1c(Cl)cccc1-2`, the ED50 in data set [1] is 0.27 mg/kg; in data set [2], under 30 mg/kg. This compound also registered an IC50 in data set [3] of 1100 nM.
The corresponding values for `C#CCOC(=O)c1ncn2c1[C@@H]1CCCN1C(=O)c1c(Cl)cccc1-2` [Example 27, 2-propynyl (S)-8-chloro-11,12,13,13a-tetrahydro-9-oxo-9H-imidazo[1,5-a]pyrrolo[2,1-c][1,4]benzodiazepine-1-carboxylate] are over 100 mg/kg, 0.005 mg/kg and 2100 nM.
Regarding `O=C(OC1CCCCC1)c1ncn2c1[C@@H]1CCCN1C(=O)c1c(I)cccc1-2`, the results for the ED50 in data set [1] and in data set [2] were 2.2 mg/kg and over 30 mg/kg, respectively. The LD50 in data set [4] was over 5000 mg/kg. Besides, in data set [3], the IC50 came to 2100 nM.
On to `O=C(OCC1CC1)c1ncn2c1[C@@H]1CCCN1C(=O)c1c(Br)cccc1-2`, for which the figures for the ED50 in data set [1] and in data set [2] were 0.63 mg/kg and under 30 mg/kg, respectively. This compound also displayed a median lethal dose (LD50) in data set [4] of 625 to 1250 mg/kg. In addition, in data set [3], the IC50 was 2600 nM.
The corresponding values for `O=C(OCC1CC1)c1ncn2c1[C@@H]1CCCN1C(=O)c1c(Cl)cccc1-2` are 0.66 mg/kg, 0.8 mg/kg, 1000 to 2000 mg/kg and 2300 nM.
For `O=C(OCc1ccccc1)c1ncn2c1[C@@H]1CCCN1C(=O)c1c(Cl)cccc1-2`, the ED50 in data set [1] was over 100 mg/kg; in data set [2] it was 0.09 mg/kg. In addition, in data set [3], the IC50 stood at 1500 nM.
Take `O=C(OC1CCCCC1)c1ncn2c1[C@@H]1CCCN1C(=O)c1c(Br)cccc1-2`: the median effective dose (ED50) was 7 mg/kg in data set [1] and under 30 mg/kg in data set [2]. In data set [4], this compound had an LD50 of over 5000 mg/kg. Further, in data set [3], the IC50 was 2700 nM.
